Measurements taken from article PMC12022903, “Evaluation of drug-drug interaction between Suraxavir Marboxil (GP681) and itraconazole, and assessment of the impact of gene polymorphism” (Frontiers in Pharmacology, 2025).
Values joined by “and” are separate entries in the source; they are usually repeats but may differ in a detail not shown here. Identical values can stand only once.

Experiment: Pharmacokinetic parameters of GP1707D07 (HPLC-MS/MS, non-compartmental) in the GP681-itraconazole drug-drug interaction study
Type: in vivo, healthy Chinese subjects
Conditions: for Cmax / MRT0-t / MRT0-∞ / Tmax / Vz/F / t1/2 / λz / AUC0-t / AUC0-∞ / AUC_%Extrap / CL/F: Period 2, GP681 20 mg + itraconazole
Method: This single-center, open-label, self-controlled, fixed-sequence study, sponsored by Qingfeng Pharmaceutical Group Co., Ltd., was conducted at a single clinical research site in the China–Japan Friendship Hospital (Beijing, China). Each subject received the following treatment: Suraxavir Marboxil (GP681) 20 mg in the fasted state on day 1 and day 26. Itraconazole capsules (Sporanox®: Xi’an Yangsen Pharmaceutical Co., Ltd., China) 0.2 g twice daily (BID, bis in die) on day 22. Itraconazole 0.2 g daily from day 23 to day 36 [including day 26, when itraconazole was co-administrated with Suraxavir Marboxil (GP681)]. The washout period is 21 days (Figure 2). It should be noted that in the following sections, when discussing the PK profile, this study was divided into Period 1 (Suraxavir Marboxil (GP681) monotherapy, from day −1 to day 12), and Period 2 (Suraxavir Marboxil (GP681)-itraconazole co-administration, from day 21 to day 36). When discussion the safety profile, this study was divided into Stage 1 (Suraxavir Marboxil (GP681) monotherapy stage, from day 1 to day 21), Stage 2 (itraconazole monotherapy stage, from day 22 to day 25), and Stage 3 (Suraxavir Marboxil (GP681)-itraconazole co-administration stage, from d 26 to d 36).
Blood samples were collected at the following time points: pre–dose, 0.5, 1, 2, 3, 4, 5, 6, 8, 12, 24, 36, 48, 72, 120, 168, and 264 h post-dose on day 1 and day 26. In addition, a blood sample were collected before dosing on day 1 for genetic polymorphism assessment.
A validated high-performance liquid chromatography-tandem mass spectrometry (HPLC-MS/MS) method was used to determine plasma concentrations of Suraxavir Marboxil (GP681) and its active metabolite GP1707D07 at different times, with the quantification range of 0.3/0.3–300/300 ng/mL for Suraxavir Marboxil (GP681) and GP1707D07. The lower limit of quantification (LLOQ) for both compounds was 0.300 ng/mL. Phoenix® WinNonlin® 8.3 was used to estimate and analyze the pharmacokinetic parameters of non-compartmental model from plasma concentration data. Pharmacokinetic parameters included: maximum plasma concentration (Cmax), area under the plasma concentration-time curve extrapolated from time zero to infinity (AUC0- ∞ ), time to Cmax (Tmax), half-life (t1/2), λz, AUC_%Extrap, Vz/F, CL/F, and mean residence time (MRT).
Statistical analysis was performed using SAS (version 9.4 or above) software programming. Pharmacokinetic concentration analysis was based on Pharmacokinetic Analysis Concentration Set (PKCS). Individual and mean concentrations (mean ± SD) were plotted against planned blood sampling time points for the analyte on linear and semi-log scales. Pharmacokinetic parameter analysis was based on Pharmacokinetic Analysis Parameter Set (PKPS). Drug interaction analysis was based on Drug Interaction Set (DIS). The geometric mean ratios and their 90% confidence intervals of pharmacokinetic parameters Cmax, AUC0-t, and AUC0- ∞ under Suraxavir Marboxil (GP681) single dose and Suraxavir Marboxil (GP681)-itraconazole co-administration conditions were calculated after natural logarithm transformation, using a linear mixed effects model with subjects as random effects and treatment (combined/single) as fixed effects.
1.3 Pharmacokinetic Sample Collection and Processing: Pharmacokinetic Analysis: Approximately 4 mL of blood is collected each time into a tube containing sodium fluoride/potassium oxalate as an anticoagulant. The tube is then placed upright in an ice-water bath. The plasma samples are separated by centrifugation for the detection of GP681/GP1707D07 blood drug concentrations. Both sample collection and processing are conducted under white light conditions. […]

[1] = mean (SD), N = 4 (8 subjects with %AUCextrap >20% not included)

With O=C1c2c(O)c(=O)ccn2N([C@@H]2c3ccccc3SCc3c2ccc(F)c3F)[C@@H]2COC3(CC3)CN12 [GP1707D07] the Cmax (geometric mean, N=12) was 22.0 ng/mL and 22.0359 ng/mL, the MRT0-t (geometric mean, N=12) was 91.828 h and the “MRT0-∞” value (geometric mean, N=12) was 170.5 h and 170.494 h. It also gave a Tmax (geometric mean, N=12) of 4.4 h, a Vz/F (geometric mean, N=12) of 1365.672 L and a t1/2 (geometric mean, N=12) of 125.561 h. For the same compound, the λz (geometric mean, N=12) was 0.0055 h⁻¹, the AUC0-t (individual subjects) was 2991.14 ng·h/mL and 2032.39 ng·h/mL and 1353.85 ng·h/mL and 2127.20 ng·h/mL and 1044.79 ng·h/mL and 2764.96 ng·h/mL and 1661.62 ng·h/mL and 2484.54 ng·h/mL and 2488.27 ng·h/mL and 2757.79 ng·h/mL and 1586.83 ng·h/mL and 2524.54 ng·h/mL and 2991.1 ng·h/mL and 2032.4 ng·h/mL and 1353.9 ng·h/mL and 1044.8 ng·h/mL and 2765.0 ng·h/mL and 1661.6 ng·h/mL and 2484.5 ng·h/mL and 2488.3 ng·h/mL and 2757.8 ng·h/mL and 1586.8 ng·h/mL and 2524.5 ng·h/mL and the “AUC0-∞” value (individual subjects) was 4071.31 ng·h/mL and 2952.73 ng·h/mL and 1815.81 ng·h/mL and 2809.94 ng·h/mL and 1322.58 ng·h/mL and 3386.84 ng·h/mL and 1943.92 ng·h/mL and 3038.12 ng·h/mL and 3010.01 ng·h/mL and 3496.61 ng·h/mL and 2164.09 ng·h/mL and 3287.23 ng·h/mL. For the same compound, the AUC_%Extrap (individual subjects) was 26.53% and 31.17% and 25.44% and 24.30% and 21.00% and 18.36% and 14.52% and 18.22% and 17.33% and 21.13% and 26.67% and 23.20%, the CL/F (individual subjects) was 4.91 L/h and 6.77 L/h and 11.01 L/h and 7.12 L/h and 15.12 L/h and 5.91 L/h and 10.29 L/h and 6.58 L/h and 6.64 L/h and 5.72 L/h and 9.24 L/h and 6.08 L/h and the Cmax (individual subjects) was 30.409 ng/mL and 21.586 ng/mL and 13.021 ng/mL and 20.877 ng/mL and 9.944 ng/mL and 32.652 ng/mL and 20.426 ng/mL and 33.588 ng/mL and 31.705 ng/mL and 26.988 ng/mL and 14.549 ng/mL and 26.492 ng/mL and 30.4 ng/mL and 21.6 ng/mL and 13.0 ng/mL and 20.9 ng/mL and 9.9 ng/mL and 32.7 ng/mL and 20.4 ng/mL and 33.6 ng/mL and 31.7 ng/mL and 27.0 ng/mL and 14.5 ng/mL and 26.5 ng/mL. For the same compound, the MRT0-t (individual subjects) was 95.36 h and 94.95 h and 95.71 h and 95.46 h and 92.09 h and 90.98 h and 84.46 h and 87.34 h and 83.83 h and 94.91 h and 93.53 h and 94.49 h, the “MRT0-∞” value (individual subjects) was 196.38 h and 225.05 h and 182.53 h and 178.20 h and 165.60 h and 151.62 h and 129.66 h and 149.99 h and 143.87 h and 168.40 h and 198.32 h and 178.88 h and the Tmax (individual subjects) was 6 h and 4 h and 5 h and 3 h. The Vz/F (individual subjects) was 1042.08 L and 1684.38 L and 1909.99 L and 1224.96 L and 2694.46 L and 929.93 L and 1355.33 L and 1100.32 L and 1104.05 L and 1021.99 L and 2056.61 L and 1181.94 L, the t1/2 (individual subjects) was 147.04 h and 172.37 h and 120.20 h and 119.29 h and 123.51 h and 109.15 h and 91.31 h and 115.86 h and 115.17 h and 123.85 h and 154.25 h and 134.65 h and the λz (individual subjects) was 0.005 h⁻¹ and 0.004 h⁻¹ and 0.006 h⁻¹ and 0.008 h⁻¹. For the same compound, the “AUC0-∞” value [1] was 2,844.7 (624.5) (N = 4) h*ng/mL, the CL/F [1] was 7.4 (2.0) (N = 4) L/h and the Vz/F [1] was 1,122.4 (175.2) (N = 4) L. For the same compound, the t1/2 [1] was 107.9 (11.4) (N = 4) h, the λz [1] was 0.007 (0.0008) (N = 4) h-1 and the AUC_%Extrap (mean, all 12 subjects) was 22.3 (4.8) % and 22.324%. For the same compound, the CL/F (mean, all 12 subjects) was 8.0 (2.9) L/h and 7.951 L/h, the Cmax (mean, all 12 subjects) was 23.5 (8.1) ng/mL and 23.5198 ng/mL and the MRT0-t (mean, all 12 subjects) was 91.9 (4.4) h and 91.926 h. For the same compound, the “MRT0-∞” value (mean, all 12 subjects) was 172.4 (26.7) h and 172.374 h, the Tmax (mean, all 12 subjects) was 4.5 h and the t1/2 (mean, all 12 subjects) was 127.2 (21.8) h and 127.221 h. For the same compound, the λz (mean, all 12 subjects) was 0.006 (0.0009) h-1 and 0.0056 h-1, the Tmax (median (range), N=12) was 4.5 (3.0–6.0) h and the AUC0-t (median, N=12) was 2305.872 ng·h/mL. For the same compound, the “AUC0-∞” value (median, N=12) was 2981.370 ng·h/mL, the AUC_%Extrap (median, N=12) was 22.166% and the CL/F (median, N=12) was 6.709 L/h. For the same compound, the Cmax (median, N=12) was 24.0390 ng/mL, the MRT0-t (median, N=12) was 94.010 h and the “MRT0-∞” value (median, N=12) was 173.300 h. The Vz/F (median, N=12) was 1203.452 L, the t1/2 (median, N=12) was 121.852 h and the λz (median, N=12) was 0.0057 h⁻¹. The half-life (Period 2, GP681 + itraconazole, statistic not stated (discussion)) was 107.4 h, the “increase of AUC0-t in Period 2 compared to Period 1” value (arithmetic means) was 107% and the “increase of AUC0-∞ in Period 2 compared to Period 1” value (arithmetic means) was 153%. The “increase of Cmax in Period 2 compared to Period 1” value (arithmetic means) was 22%, the “AUC0-t Ratio Period 2/Period 1” value (individual subjects) was 7.8 and 2.8 and 1.7 and 2.2 and 1.8 and 1.4 and 1.9 and 2.0 and 2.1 and the “Cmax Ratio Period 2/Period 1” value (individual subjects) was 8.0 and 1.7 and 0.8 and 1.8 and 1.3 and 1.6 and 1.1 and 0.6.
